ChEMBL document CHEMBL5360551, “Exploration of LPS2 agonist binding modes using the combination of a new hydrophobic scaffold and homology modeling” (Eur J Med Chem, 2023)
pEC50: −log10 of the molar value.

Assays:
[1] = target: Putative P2Y purinoceptor 10 (Mus musculus) (UniProt Q8BFU7); test: Agonist activity at mouse LPS2/P2Y10 transfected in HEK293-A cells co-transfected with AP-TGFalpha assessed as AP-TGFalpha release by TGFalpha shedding assay relative to LysoPS; format: functional, cell-based; settings: filed as agonist
Sequence of Putative P2Y purinoceptor 10 (Mus musculus) (Q8BFU7 whole entry): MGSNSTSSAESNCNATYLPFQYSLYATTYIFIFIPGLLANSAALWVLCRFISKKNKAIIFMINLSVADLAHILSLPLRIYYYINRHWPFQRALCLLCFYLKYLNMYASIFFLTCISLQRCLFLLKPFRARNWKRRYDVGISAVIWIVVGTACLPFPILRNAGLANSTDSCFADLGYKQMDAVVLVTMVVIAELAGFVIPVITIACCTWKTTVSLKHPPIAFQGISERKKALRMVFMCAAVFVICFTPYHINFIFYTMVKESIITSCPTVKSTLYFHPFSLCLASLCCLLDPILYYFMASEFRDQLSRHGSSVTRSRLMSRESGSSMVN

[2] = target: Putative P2Y purinoceptor 10 (Mus musculus, UniProt Q8BFU7); test: Agonist activity at mouse LPS2/P2Y10 transfected in HEK293-A cells co-transfected with AP-TGFalpha assessed as AP-TGFalpha release by TGFalpha shedding assay; format: functional, cell-based; settings: for pEC50: read-out: EC50; for EC50: read-out: pEC50 (converted)
Sequence of Putative P2Y purinoceptor 10 (Mus musculus, UniProt Q8BFU7) (Q8BFU7 whole entry): as above

[3] = target: Probable G-protein coupled receptor 34 (Mus musculus, UniProt Q9R1K6); test: Agonist activity at mouse LPS1/GPR34 transfected in HEK293-A cells co-transfected with AP-TGFalpha assessed as AP-TGFalpha release by TGFalpha shedding assay; format: functional, cell-based
Sequence of Probable G-protein coupled receptor 34 (Q9R1K6 whole entry): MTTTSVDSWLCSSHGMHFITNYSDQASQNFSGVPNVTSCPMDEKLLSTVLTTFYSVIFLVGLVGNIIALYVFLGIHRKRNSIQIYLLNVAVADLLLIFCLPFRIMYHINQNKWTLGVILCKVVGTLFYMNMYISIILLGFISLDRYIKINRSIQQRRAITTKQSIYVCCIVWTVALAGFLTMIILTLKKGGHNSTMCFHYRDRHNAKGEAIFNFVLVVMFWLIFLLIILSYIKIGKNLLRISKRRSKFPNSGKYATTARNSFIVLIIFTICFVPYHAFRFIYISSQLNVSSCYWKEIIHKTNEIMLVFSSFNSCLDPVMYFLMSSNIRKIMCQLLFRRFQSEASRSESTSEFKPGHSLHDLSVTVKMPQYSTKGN

[4] = target: Probable G-protein coupled receptor 34 (Mus musculus) (UniProt Q9R1K6); test: Agonist activity at mouse LPS1/GPR34 transfected in HEK293-A cells co-transfected with AP-TGFalpha assessed as AP-TGFalpha release by TGFalpha shedding assay relative to LysoPS; format: functional, cell-based; settings: filed as agonist
Sequence of Probable G-protein coupled receptor 34 (Mus musculus) (Q9R1K6 whole entry): as above

[5] = target: T1, Putative P2Y purinoceptor 10 (Homo sapiens, UniProt O00398); test: Agonist activity at human LPS2/P2Y10 transfected in HEK293-A cells co-transfected with AP-TGFalpha assessed as AP-TGFalpha release by TGFalpha shedding assay relative to LysopPS; format: functional, cell-based; settings: filed as agonist
T1 sequence (O00398 whole entry): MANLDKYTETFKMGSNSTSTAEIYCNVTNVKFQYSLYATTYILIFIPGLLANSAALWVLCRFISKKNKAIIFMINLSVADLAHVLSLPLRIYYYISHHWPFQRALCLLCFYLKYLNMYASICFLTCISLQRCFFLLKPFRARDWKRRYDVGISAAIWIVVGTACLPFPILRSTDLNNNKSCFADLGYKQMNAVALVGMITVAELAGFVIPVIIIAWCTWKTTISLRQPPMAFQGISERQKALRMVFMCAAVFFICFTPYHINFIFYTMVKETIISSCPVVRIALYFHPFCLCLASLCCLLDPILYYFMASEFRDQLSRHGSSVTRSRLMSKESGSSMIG

[6] = target: T1, Putative P2Y purinoceptor 10; test: Agonist activity at human LPS2/P2Y10 transfected in HEK293-A cells co-transfected with AP-TGFalpha assessed as AP-TGFalpha release by TGFalpha shedding assay; format: functional, cell-based; settings: read-out: EC50
[7] = system: Putative P2Y purinoceptor 10 (Homo sapiens), O00398 [V159F]; test: Agonist activity at N-terminal FLAG-tagged human LPS2/P2Y10 V159F mutant transfected in HEK293-A cells co-transfected with AP-TGFalpha assessed as AP-TGFalpha release by TGFalpha shedding assay relative to LysoPS; format: cell-based; settings: filed as agonist
Sequence of Putative P2Y purinoceptor 10 (Homo sapiens), O00398 [V159F] (O00398 whole entry V159F): as the sequence (O00398 whole entry) above, with V159F counted along it

[8] = target: T1, Putative P2Y purinoceptor 10; test: Agonist activity at wildtype N-terminal FLAG-tagged human LPS2/P2Y10 transfected in HEK293-A cells co-transfected with AP-TGFalpha assessed as AP-TGFalpha release by TGFalpha shedding assay relative to LysoPS; format: functional, cell-based; settings: filed as agonist
[9] = target: T1, Putative P2Y purinoceptor 10; test: Agonist activity at wildtype N-terminal FLAG-tagged human LPS2/P2Y10 transfected in HEK293-A cells co-transfected with AP-TGFalpha assessed as AP-TGFalpha release by TGFalpha shedding assay; format: functional, cell-based
[10] = target: Putative P2Y purinoceptor 10 (Homo sapiens, UniProt O00398, A163F); test: Agonist activity at N-terminal FLAG-tagged human LPS2/P2Y10 A163F mutant transfected in HEK293-A cells co-transfected with AP-TGFalpha assessed as AP-TGFalpha release by TGFalpha shedding assay; format: cell-based
Sequence of Putative P2Y purinoceptor 10 (Homo sapiens, UniProt O00398, A163F) (O00398 whole entry A163F): as the sequence (O00398 whole entry) above, with A163F counted along it

[11] = system: Putative P2Y purinoceptor 10 (Homo sapiens), O00398 [A163F]; test: Agonist activity at N-terminal FLAG-tagged human LPS2/P2Y10 A163F mutant transfected in HEK293-A cells co-transfected with AP-TGFalpha assessed as AP-TGFalpha release by TGFalpha shedding assay relative to LysoPS; format: cell-based; settings: filed as agonist
Sequence of Putative P2Y purinoceptor 10 (Homo sapiens), O00398 [A163F] (O00398 whole entry A163F): as the sequence (O00398 whole entry) above, with A163F counted along it

[12] = target: Putative P2Y purinoceptor 10 (Homo sapiens, UniProt O00398, V159F); test: Agonist activity at N-terminal FLAG-tagged human LPS2/P2Y10 V159F mutant transfected in HEK293-A cells co-transfected with AP-TGFalpha assessed as AP-TGFalpha release by TGFalpha shedding assay; format: cell-based
Sequence of Putative P2Y purinoceptor 10 (Homo sapiens, UniProt O00398, V159F) (O00398 whole entry V159F): as the sequence (O00398 whole entry) above, with V159F counted along it

Q: Which Emax [1] does the source give for `N[C@@H](COP(=O)(O)OCCCCCOC(=O)CC(=O)CC(=O)Cc1ccccc1Oc1ccc(-c2ccccc2)cc1)C(=O)O` here?
A: 96%

Q: And the pEC50 [2]?
A: 7.00

Q: How did the Emax [1] turn out when `CCc1ccccc1Oc1ccccc1CCC(=O)OCCCOP(=O)(O)OC[C@H](N)C(=O)O` was run?
A: 78%

Q: And the pEC50 [2]?
A: 6.77

Q: `N[C@@H](COP(=O)(O)OCCCOC(=O)CCc1ccccc1OCc1cccc(Oc2ccccc2)c1)C(=O)O` was tested. Which pEC50 ([3]; hek293-a) did it give?
A: 6.66

Q: What about the Emax [4] of the same compound?
A: 124%

Q: And the Emax [1]?
A: 63%

Q: And the pEC50 [2]?
A: 7.05

Q: What about the EC50 [2] of the same compound?
A: 93.3 nM

Q: Which results are given for `CC(C)(C)c1ccc(-c2cccc(COc3ccccc3CCC(=O)OCCCOP(=O)(O)OC[C@H](N)C(=O)O)c2)cc1`?
A: pEC50 [3]: 6.02; Emax [4]: 107%; Emax [1]: 99%; pEC50 [2]: 7.46

Q: How did the pEC50 [3] turn out when `CCCCCCOc1cccc(COc2ccccc2CCC(=O)OCCCOP(=O)(O)OC[C@H](N)C(N)=O)c1` was run?
A: < 5.52

Q: What about the Emax [1] of the same compound?
A: 113%

Q: And the pEC50 [2]?
A: 8.15

Q: Which results are given for `Cc1cccc(COc2ccccc2CCC(=O)OCCCOP(=O)(O)OC[C@H](N)C(=O)O)c1`?
A: Emax [1]: 114%; pEC50 [2]: 6.47

Q: Which results are given for `N[C@@H](COP(=O)(O)OCCCOC(=O)CCc1ccccc1Oc1ccc(-c2ccccc2-c2ccccc2)cc1)C(=O)O`?
A: Emax [5]: 113%; pEC50 [6]: 7.00; Emax [1]: 87%; pEC50 [2]: 8.17

Q: What does the source list for `CC(C)(C)c1cccc(Oc2ccccc2CCC(=O)OCCCOP(=O)(O)OC[C@H](N)C(=O)O)c1`?
A: Emax [1]: 113%; pEC50 [2]: 6.40

Q: How did the Emax [1] turn out when `CC(C)(C)c1cc(Oc2ccccc2CCC(=O)OCCCOP(=O)(O)OC[C@H](N)C(=O)O)cc(C(C)(C)C)c1` was run?
A: 125%

Q: What about the pEC50 [2] of the same compound?
A: 6.70

Q: How did the Emax [1] turn out when `N[C@@H](COP(=O)(O)OCCCCOC(=O)CC(=O)CC(=O)Cc1ccccc1Oc1ccc(-c2ccccc2)cc1)C(=O)O` was run?
A: 118%

Q: What about the pEC50 [2] of the same compound?
A: 7.51

Q: `N[C@@H](COP(=O)(O)OCCCOC(=O)CCc1ccccc1Oc1ccc(O)cc1)C(=O)O` was tested. Which pEC50 [2] did it give?
A: < 8.52

Q: What about the EC50 [2] of the same compound?
A: < 3160 nM

Q: `N[C@@H](COP(=O)(O)OCCCOC(=O)CCc1ccccc1OCc1cccc(-c2ccccc2)c1)C(=O)O` was tested. Which pEC50 [3] did it give?
A: < 5.52

Q: What about the Emax [1] of the same compound?
A: 131%

Q: What about the pEC50 [2] of the same compound?
A: 8.24

Q: How did the Emax [7] turn out when `N[C@@H](COP(=O)(O)OCCCOC(=O)CCc1ccccc1Oc1ccc(-c2ccccc2)cc1)C(=O)O` was run?
A: 131%

Q: And the Emax [8]?
A: 125%

Q: And the pEC50 [9]?
A: 7.28

Q: What about the pEC50 [10] of the same compound?
A: 7.48

Q: And the Emax [11]?
A: 122%

Q: What about the pEC50 [12] of the same compound?
A: 7.59

Q: And the Emax [5]?
A: 133%

Q: What about the pEC50 [6] of the same compound?
A: 7.15

Q: What about the Emax [1] of the same compound?
A: 111%

Q: What about the pEC50 [2] of the same compound?
A: 8.04

Q: Which results are given for `N[C@@H](COP(=O)(O)OCCOC(=O)CC(=O)CC(=O)Cc1ccccc1Oc1ccc(-c2ccccc2)cc1)C(=O)O`?
A: Emax [1]: 112%; pEC50 [2]: 6.70

Q: For `N[C@@H](COP(=O)(O)OCCCOC(=O)CCc1ccccc1Oc1ccc(-c2ccc(C34C[C@H]5C[C@@H](C3)C[C@@H](C4)C5)cc2)cc1)C(=O)O`, which Emax [1] is on record?
A: 68%

Q: And the pEC50 [2]?
A: 8.28

Q: For `N[C@@H](COP(=O)(O)OCCCOC(=O)CCc1ccccc1Oc1ccc(-c2ccc(-c3ccccc3)cc2)cc1)C(=O)O`, which Emax [5] is on record?
A: 89%

Q: What about the pEC50 [6] of the same compound?
A: 8.10

Q: And the Emax [1]?
A: 70%

Q: What about the pEC50 [2] of the same compound?
A: 8.43

Q: Which results are given for `N[C@@H](COP(=O)(O)OC1CCCO[C@@H]1COC(=O)CCc1ccccc1OCc1cccc(Oc2ccccc2)c1)C(=O)O` (some centres not stated)?
A: pEC50 [3]: 6.74; Emax [4]: 117%

Q: With `Cc1cccc(Oc2ccccc2CCC(=O)OCCCOP(=O)(O)OC[C@H](N)C(=O)O)c1` as the compound, how does the Emax [1] read?
A: 78%

Q: And the pEC50 [2]?
A: 6.68

Q: `Cc1cc(C)cc(-c2cccc(COc3ccccc3CCC(=O)OCCCOP(=O)(O)OC[C@H](N)C(=O)O)c2)c1` was tested. Which pEC50 [3] did it give?
A: < 5.52

Q: What about the Emax [1] of the same compound?
A: 114%

Q: What about the pEC50 [2] of the same compound?
A: 7.34

Q: What does the source list for `N[C@@H](COP(=O)(O)OCCCOC(=O)CCc1ccccc1Oc1cccc(-c2ccccc2)c1)C(=O)O`?
A: Emax [5]: 133%; pEC50 [6]: 7.21; Emax [1]: 109%; pEC50 [2]: 7.54

Q: With `CCc1ccc(-c2ccc(Oc3ccccc3CCC(=O)OCCCOP(=O)(O)OC[C@H](N)C(=O)O)cc2)cc1` as the compound, how does the Emax [1] read?
A: 98%

Q: And the pEC50 [2]?
A: 8.59

Q: Which Emax [1] does the source give for `Nc1ccc(Oc2ccccc2CCC(=O)OCCCOP(=O)(O)OC[C@H](N)C(=O)O)cc1` here?
A: 59%

Q: And the pEC50 [2]?
A: 8.80

Q: And the EC50 [2]?
A: 1580 nM
